Results published in PMC4545913, “Dual EZH2 and EHMT2 histone methyltransferase inhibition increases biological efficacy in breast cancer cells” (Clinical Epigenetics, 2015).
Read-outs that look alike come from different tables or passages of the source.

Tested on: MDA-MB-231 cells
Test: MTT cell viability assay
Type: cell-based
Conditions: Homo sapiens
Method: Fig. 1 MTT and mRNA levels in MDA-MB-231 cells after pharmacological inhibition and siRNA knockdown of EZH2 and EHMT2(G9a), individually and in combination. a Expression levels of KRT17, FBX032, JMJD3, EZH2, SPINK1 and EHMT2 were measured by qRT-PCR in the MDA-MB-231 cell line 48 h after transfection with siRNAs targeting EZH2 and EHMT2, both individually and in combination. All measurements were normalised to the fold-change (relative to GAPDH) in the mock transfection control. Error bars represent the mean ± SD of experiment performed in technical triplicate. b Expression levels of KRT17, FBX032, JMJD3 and SPINK1 were measured by qRT-PCR in the MDA-MB-231 cell line treated for 48 h with GSK343, UNC0638, and UNC0638 (at 7.5 μM) with increasing doses of GSK343. Each group has been compared to the untreated sample following normalisation to GAPDH. Error bars represent the mean ± SD of experiment performed in technical triplicate. c MTT assay for cell viability of MDA-MB-231 cells after treatment. MDA-MB-231 cells were seeded in 96 well plates. After 24 h, increasing doses of GSK343, UNC0638 or combination treatments (1, 2.5, 5, 7.5, 10 and 15 μM) were added to cells. Control was media with 0.5 % DMSO. Cell viability was measured by MTT assay after a 48-h treatment and a 24-h proliferation period. Error bars represent the mean ± SEM of five independent repeats
For clonogenic assays, cells were treated with compound for 48 h, media were removed and replaced with fresh media for a further 12 days to measure colony formation. For cell viability assays, lymphoma cells were plated at 20,000 cells in 200 μl per well in U-bottom 96 well plates in RPMI medium +20 % FCS. Cells were re-suspended 48 h later, diluted 10-fold in PBS + propidium iodide (PI) and the concentration of PI negative cells was counted using an Attune flow cytometer with autosampler. Breast cancer cells were seeded at a density of 10,000 cells/well in a sterile 96 clear-well plate with 150 μl of DMEM (+10 % FCS and 2 mM L-Glutamine). Each compound treatment was performed in triplicate for 72 h at concentrations of 100 nM and 1, 5, 10 and 50 μM in 100 μl of full-medium. After 72 h, 20 μl of MTT solution (3 mg of MTT Formazan, Sigma/1 ml PBS) was added to the medium and incubated for 4 h at 37 °C in a CO2 incubator. The MTT-product was solubilised with 100 μl DMSO, and for 1 h, incubated in the dark at room temperature. The optical density was read at 570 nm with PHERAstar.

COc1cc2nc(N3CCN(C)CC3)nc(NC3CCN(Cc4ccccc4)CC3)c2cc1OC [HKMTI-1-005] showed an IC50 (MDA-MB-231, MTT (Table 3B), read-out: Cell growth IC50 MDA-MB-231) of 4.3 µM and an IC50 (MDA-MB-231 (Table 2), read-out: Cell viability (MTT) IC50) of 4.3 µM.
